Like-named read-outs stand apart in the source and are kept apart here.
How the values were obtained:
ALDH1A3 = molecular target: T1, ALDH1A3 (Homo sapiens, UniProt P47895); test: ALDH isoform selectivity of red probes: ALDH1A3; type: biochemical; details: for Enzyme Activity 1A3: Table 2
T1 construct: made in house
T1 sequence (P47895 1-512): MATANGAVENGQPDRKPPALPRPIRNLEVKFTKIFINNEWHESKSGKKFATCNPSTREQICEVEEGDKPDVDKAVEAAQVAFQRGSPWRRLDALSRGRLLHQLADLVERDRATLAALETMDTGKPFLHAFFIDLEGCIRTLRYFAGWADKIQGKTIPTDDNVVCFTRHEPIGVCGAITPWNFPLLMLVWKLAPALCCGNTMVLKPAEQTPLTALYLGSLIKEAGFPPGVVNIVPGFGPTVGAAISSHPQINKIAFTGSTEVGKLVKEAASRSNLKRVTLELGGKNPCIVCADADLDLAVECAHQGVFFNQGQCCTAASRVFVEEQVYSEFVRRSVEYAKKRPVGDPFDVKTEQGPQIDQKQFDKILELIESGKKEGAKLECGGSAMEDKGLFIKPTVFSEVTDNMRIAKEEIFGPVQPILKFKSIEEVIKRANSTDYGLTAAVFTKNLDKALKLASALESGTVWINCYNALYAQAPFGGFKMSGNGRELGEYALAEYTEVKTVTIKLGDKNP
Protocol: (§1) Each ALDH isoform was added to a 50 mM triethanolamine solution (pH 7.4) containing 2.0 mM NAD^+ and 100 μM substrate at room temperature. Benzaldehyde was the substrate for ALDH3A1. Propanal was the substrate for all other isoforms. ALDH isoform activity was determined by monitoring the rate of NADH production through the increase in absorbance at 340 nm (ε=6220 M^−1cm^−1). For these assays, 1 unit is defined as the amount of enzyme that catalyzes the conversion of […] per minute. For every combination of dye and enzyme, 2 μM dye was preincubated with 2.0 mM NAD^+ in 50 mM triethanolamine solution (pH 7.4). The reaction was initiated by addition of 1 unit of ALDH. Dyes were excited at 590 nm, and fluorescence was measured continuously at 610 nm.

[1] = Photophysical properties (absorbance, emission, extinction coefficient, quantum yield); type: physicochemical; details: for Quantum Yield: Probes 1-8
ALDH1A1 [2] = molecular target: T2, ALDH1A1 (Homo sapiens, UniProt P00352); test: ALDH isoform selectivity of red probes: ALDH1A1; type: biochemical; details: for Enzyme Activity 1A1 / Enzymatic Turn On: Table 2; for Enzymatic Turn On: ALDH1A1, 2 μM dye
T2 construct: made in house
T2 sequence (P00352 1-501): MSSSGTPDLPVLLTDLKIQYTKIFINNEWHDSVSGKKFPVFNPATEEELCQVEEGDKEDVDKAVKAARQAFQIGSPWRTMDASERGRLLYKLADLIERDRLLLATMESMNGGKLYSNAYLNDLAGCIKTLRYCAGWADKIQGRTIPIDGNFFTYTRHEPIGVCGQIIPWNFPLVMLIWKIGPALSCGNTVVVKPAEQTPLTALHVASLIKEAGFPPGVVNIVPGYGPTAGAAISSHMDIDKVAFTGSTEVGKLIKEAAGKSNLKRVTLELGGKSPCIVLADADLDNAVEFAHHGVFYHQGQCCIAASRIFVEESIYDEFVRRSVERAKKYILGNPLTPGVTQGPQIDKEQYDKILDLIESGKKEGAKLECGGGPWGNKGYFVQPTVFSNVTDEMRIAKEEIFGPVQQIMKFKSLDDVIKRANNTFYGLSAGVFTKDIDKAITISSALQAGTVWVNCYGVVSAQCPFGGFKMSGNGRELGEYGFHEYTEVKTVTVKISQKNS
Protocol: as §1

[3] = Stability of the fluorophore against water-mediated decomposition; type: physicochemical
[4] = system: e-CSC and non-CSC B16F0 tumors; test: In vivo melanoma tumor fluorescence imaging; set-up: species or system mice; details: 1 and 2 weeks
[5] = system: e-CSC and non-CSC melanoma lung metastases; test: Ex vivo lung metastases imaging; type: in vivo, mice; details: lungs perfused ex vivo, day 7 and 11
Protocol: Six to eight-week-old female C57BL/6J mice were purchased from Jackson Laboratory. Experimental metastases were established by injecting 2×10^5 melanoma cells via lateral tail vein injection. Mice were euthanized at either 7- or 11-days post injection. Immediately after euthanization, their lungs were excised and perfused with about 1 mL of either 15 μM AlDeSense AM or 15 μM Ctrl-AlDeSense AM in PBS. Outer portions of the lungs were rinsed in 15 mL of PBS to remove blood or excess dyes. After 2 hours incubation at room temperature (25° C.), the lungs were imaged on the IVIS spectrum imaging system (Perkin Elmer). Data was processed using Living Image software (Version 4.1).

[6] = pKa determination (pH profile of fluorescence); details: Britton-Robinson buffer
Protocol: The fluorescence of 1 μM of each compound was measured in 40 mM Britton-Robinson buffer at pH 2-9 in 0.5 pH intervals. Each measurement was performed in triplicate. […] Error bars are ±standard deviation (SD).

K562 cells = test: Trypan blue cytotoxicity / viability assay; type: cell-based
Protocol: K562 cells were plated in a 96-well plate with 50,000 cells per well. Each well was filled to a final volume of 100 μL IMDM media with 0.25% DMSO. Wells were tested using red-AlDeSense or Ctrl-red-AlDeSense (1 μM and 5 μM each) or using a DMSO control. After 6-, 12-, and 24-hour incubation periods at 37° C. and 5% CO2, a 10 μL sample was removed from each condition and combined with 10 μL 0.4% w/v trypan blue in PBS. Samples were incubated for 3 minutes at room temperature before being loaded on a hemocytometer where live and dead cells were counted. Conditions were tested in triplicate for each time point. Samples were analyzed on an EVOS digital inverted microscope using transmitted white light for brightfield imaging and the Cy5 filter cube for trypan blue visualization.
K562 cells were plated in a 96-well plate at a density of 500,000 cells/mL in full IMDM media supplemented with either 1 μM or […] AlDeSense AM. Equivalent samples were supplemented with 1 μM or […] as a vehicle control. At 6, 12, and 24 hours, a 10 μL sample was removed from each of the samples and mixed 1:1 with a 0.4% wt/volume trypan blue solution in PBS. Samples were incubated for 1 minute at room temperature before being loaded onto a hemocytometer where live and dead cells were counted. Each sample was made in triplicate for each time point.

Log D7.4 = type: physicochemical; details: pH 7.4
ALDH1A1 [7] = molecular target: T2, ALDH1A1; test: Fluorescence turn-on of AlDeSense with recombinant ALDH1A1; type: biochemical; details: fluorescent enhancement when treated with ALDH1A1; 1 μM probe
Protocol: Activation of AlDeSense was assessed using 20 units of each ALDH isoform. Activity was determined by activity measurements using each isoform's preferred substrate (1 unit=1 μmol substrate turned over/mol enzyme/min). Further details are in the supplementary information. All enzymatic reactions were performed in 50 mM triethanolamine buffer (pH 7.4, Thermo Fisher) with 2.5 mM NAD+(Alfa Aesar) and 5% v/v DMSO (Thermo Fisher) in a 1 mL quartz cuvette at room temperature.
AlDeSense activation was determined using fluorescence. Immediately before measurement, AlDeSense (1 μM) was added to a quartz cuvette. After vigorous mixing, the reaction was monitored at room temperature for 15 min. Fluorescence spectra were acquired according to following parameters: λex=498 nm, and emission range=505-580 nm. All scans were normalized to the signal from AlDeSense in 50 mM TEA and 2.5 mM NAD+(without enzyme). Endpoint measurements at 15 min were performed in triplicate and reported as the averages±standard deviation.

ALDH1A1 kinetics [8] = substrate: Cc1cc(C=O)ccc1-c1c2cc(F)c(=O)cc-2oc2cc(O)c(F)cc12; test: ALDH1A1 kinetics; type: biochemical, human; details: other: ALDH1A1, identical conditions; pH 7.4
Protocol: (§2) Solutions were prepared of 2.0 mM NAD+ and 0.1-2.5 μM AlDeSense or red-AlDeSense in 50 mM triethanolamine solution (pH 7.4). For every concentration, 1 unit of enzyme (as defined and determined in ALDH Isoform Selectivity) was added. Fluorescence was monitored for 30 seconds to determine V0. AlDeSense was excited at 490 nm and monitored at 510 nm. Red-AlDeSense was excited at 590 nm and monitored at 610 nm. Each condition was performed in triplicate. Protein concentration was determined using the Pierce™ BCA Protein Assay Kit. Data was analyzed using Microsoft Excel.

ALDH1A1 kinetics [9] = substrate: Cc1cc(C=O)c(F)c(F)c1C1=C2C=CC(=O)C=C2[Si](C)(C)c2cc(O)ccc21; test: ALDH1A1 kinetics; type: biochemical, human; details: other: ALDH1A1, identical conditions; pH 7.4
Protocol: as §2

## Cc1cc(C=O)ccc1C1=C2C=CC(=O)C=C2[Si](C)(C)c2cc(O)ccc21 [Probe 1, 4-(7-Hydroxy-5,5-dimethyl-3-oxo-3,5-dihydrodibenzo[b, e]silin-10-yl)-3-methylbenzaldehyde]
ALDH1A3
  selectivity ALDH1A1 versus ALDH1A3: no longer selective for ALDH1A1
  Enzyme Activity 1A3: Medium
[1]
  Quantum Yield: 0.32
ALDH1A1 [2]
  turn-on response when treated with ALDH1A1: 1.7 fold
  Enzyme Activity 1A1: High
  Enzymatic Turn On: 1.7

## Cc1c(F)c(C=O)cc(F)c1C1=C2C=CC(=O)C=C2[Si](C)(C)c2cc(O)ccc21 [Probe 8, 2,5-Difluoro-4-(7-hydroxy-5,5-dimethyl-3-oxo-3,5-dihydrodibenzo[b, e]silin-0-yl)-3-methylbenzaldehyde]
ALDH1A3
  selectivity ALDH1A1 versus ALDH1A3: selectivity was eroded
  Enzyme Activity 1A3: Medium
[1]
  Quantum Yield: 0.20
ALDH1A1 [2]
  Enzyme Activity 1A1: High
  Enzymatic Turn On: 3.1

## C[Si]1(C)C2=CC(=O)C=CC2=C(c2c(F)cc(C=O)cc2F)c2ccc(O)cc21 [Probe 6, 3,5-Difluoro-4-(7-hydroxy-5,5-dimethyl-3-oxo-3,5-dihydrodibenzo[b, e]silin-10-yl)benzaldehyde]
ALDH1A3
  selectivity ALDH1A1 versus ALDH1A3: exhibited cross-reactivity with ALDH1A3
  Enzyme Activity 1A3: High
[1]
  Quantum Yield: 0.13
ALDH1A1 [2]
  turn-on response when treated with ALDH1A1: 3.9 fold
  Enzyme Activity 1A1: High
  Enzymatic Turn On: 3.9
[3]
  stability against water-mediated decomposition of the fluorophore: prevent water-mediated decomposition

## CC(=O)c1ccc(-c2c3cc(F)c(=O)cc-3oc3cc(O)c(F)cc23)c(C)c1 [Ctrl-AlDeSense]
[4]
  signal in e-CSC versus non-CSC tumors: did not show increased signal
[1]
  ε: 68000 M⁻¹ cm⁻¹
[1]; Table 1
  λcm: 518 nm
[1]; maximum absorbance
  λabs: 496 nm
[1]; prior to activation
  ΦF: 0.039
[5]
  fluorescence of e-CSC lungs versus non-CSC lungs: not statistically different
[6]
  pKa: 4.47
K562 cells; K562 cells, 6, 12 and 24 hours
  toxicity in cell viability assay: non-toxic
Log D7.4
  logD: 0.87
ALDH1A1 [7]
  Turn-on (fold): 0 fold

## CC(=O)c1cc(F)c(C2=C3C=CC(=O)C=C3[Si](C)(C)c3cc(O)ccc32)c(C)c1F [Ctrl-red-AlDeSense, 10-(4-A cetyl-3,6-difluoro-2-methylphenyl)-7-hydroxy-5,5-dimethyldibenzo[b, e]silin-3(5H)-one]
K562 cells
  toxicity in cell viability assay: nontoxic

## C[Si]1(C)C2=CC(=O)C=CC2=C(c2ccc(C=O)cc2[N+](=O)[O-])c2ccc(O)cc21 [Probe 4, 4-(7-Hydroxy-5,5-dimethyl-3-oxo-3,5-dihydrodibenzo[b, e]silin-10-yl)-3-nitrobenzaldehyde]
[1]
  Quantum Yield: 0.00

## Cc1cc(C=O)c(F)cc1C1=C2C=CC(=O)C=C2[Si](C)(C)c2cc(O)ccc21 [Probe 5, 2-Fluoro-4-(7-hydroxy-5,5-dimethyl-3-oxo-3,5-dihydrodibenzo[b, e]silin-10-yl)-5-methylbenzaldehyde]
ALDH1A3
  Enzyme Activity 1A3: Low
[1]
  Quantum Yield: 0.21
ALDH1A1 [2]
  turn-on response when treated with ALDH1A1: 2.6 fold
  Enzyme Activity 1A1: High
  Enzymatic Turn On: 2.6

## Cc1cc(C(=O)O)ccc1-c1c2cc(F)c(=O)cc-2oc2cc(O)c(F)cc12 [oxidized AlDeSense]
K562 cells; K562 cells, 6, 12 and 24 hours
  toxicity in cell viability assay: non-toxic

## C[Si]1(C)C2=CC(=O)C=CC2=C(c2ccc(C=O)cc2F)c2ccc(O)cc21 [Probe 2, 3-Fluoro-4-(7-hydroxy-5,5-dimethyl-3-oxo-3,5-dihydrodibenzo[b, e]silin-10-yl)benzaldehyde]
[3]
  stability against water-mediated decomposition of the fluorophore: rapid decomposition

B1: ALDH1A1 (Homo sapiens) (protein)
chain: T2 sequence (P00352 1-501)
notes: made in house
ALDH1A1 kinetics [8]
  kcat/Km: 57700 M⁻¹ s⁻¹
ALDH1A1 kinetics [9]
  kcat/Km: 132000 M⁻¹ s⁻¹

— patent publication US11407725B2 (The Board of Trustees of the University of Illinois, priority 2018, dated 2022)
